Molecules are shown by their SMILES.

One assay concerns plasma melatonin. Put plainly: Effect on nocturnal plasma melatonin concentration in rats. Format: in vivo, rat. The following applies: Wistar rats, 3 mg/kg orally once per day for 7 days, vs vehicle, FIG. 5. The method, then: Effect of Compound A on Nocturnal Plasma Melatonin Concentration in Rats
9-Week-old male Wistar rats (CLEA Japan Inc.) were used for this study. All rats (n=12) were bred in groups of 2 to 5 animals per cage in a light control room (lights on at 7:00 and 12 hour light/dark cycle) prior to the test and made to get used to it for about two weeks. Food and tap water were freely provided.
A solvent or compound A was orally administered to 11-week-old rats at a dose of 3 mg/kg once per day at 17:00-17:15 for 7 days. After the final treatment, blood samples (500 μL) were successively collected from the tail artery of each rat at 20:00 (ZT (Zeitgeber Time)) 13), 22:00 (ZT15), 0:00 (ZT17), 2:00 (ZT19), 4:00 (ZT21), 6:00 (ZT23) and 8:00 (ZT25) in EDTA-2Na-containing tube (Lot No. MP0831, CAPIJECT (registered trade mark), Terumo Corporation, Japan). The blood samples were centrifuged at 15,000 rpm, 4° C. for 5 min and the supernatant (200 μL) was preserved at -80° C. until they were treated for radioimmunoassay. Melatonin concentration was measured using a kit (Lot No. 2428.10, BUHLMANN Laboratories AG, Switzerland) commercially available from T.N. TECHNOS., Limited, Japan.
The data are shown in average ±SEM (6 rats in each group). The statistical significance between samples and in samples was determined by repeated measurement ANOVA in which P<0.05 was significant.

The test system of a further assay is Clock mutant mouse. The assay can be described thus: Effect on phase delay in Clock mutant mouse (rotating basket exercise). The assay is classed as in vivo. The following applies: for % in the initial dark period (rotating basket exercise) / % in the initial dark period (rotating basket exercise), recovery of decrease: vs solvent; for % in the initial dark period (rotating basket exercise): FIG. 3; for exercise starting time: vs average of 7-day preliminary treatment period; for % in the initial dark period (rotating basket exercise), recovery of decrease: FIG. 1. How it is done: Effect on Phase Delay of Compound A in Clock Mutant Mouse
Male Clock mutant mouse (Trans Genic Inc.) and male ICR mouse (CLEA Japan Inc.) were used as a wild-type control in this study. All animals were bred in groups of 4 or 5 animals per cage in a light control room (lights on at 7:00 and 12 hour light/dark cycle) prior to behavioral test. Food and tap water were freely provided.
21-Week-old and 23-week-old mice were used in experiment 1 and experiment 2 (in each experiment, Clock mutant mouse; n=36, ICR mouse; n=12). In both experiments, the animals were placed in a test room and individually bred under 10 hr/14 hr light/dark cycle (lights on at 7:00 and lights off at 17:00) in a cage provided with a rotating basket (diameter 14.5 cm). In addition, 15 Clock mutant mice and 10 ICR mice were prepared as extra animals in the same room in each experiment. Data on the rotating basket exercise were collected every minute and analyzed using Clocklab (registered trade mark) (Actimetrics, Evanston, Ill., USA).
The animals were first acclimated to a new light/dark cycle for about 2 weeks. In the acclimation period, a total number of exercises in 24 hours (total number) for each day, and the percentage of the number of exercise in the light period (7:00 to 17:00) (percentage in the light period) in the total number were measured.
In the preliminary treatment period, the mice were orally administered with a solvent (0.5% methylcellulose solution) at 15:45-16:19 once daily for 2 weeks for acclimation to administration prior to the drug treatment period. […] The solvent or compound A was orally administered to the animals at 15:45 to 16:13 once a day for 7 days.
In the drug treatment period, % in the initial dark period was measured, and the exercise start time was measured using same as an additional index in the Clock mutant mice. Using the aforementioned parameter, the minimum effective dose of compound A in these experiments (experiments 1 and 2) was determined.
The data are shown in average ±SEM. A statistical significance between ICR mouse and Clock mutant mouse was determined by Student's t-test (experiment 1) or Aspin-Welch test (experiment 2) in which P≤0.05 was significant. For analysis of multiple administration of compound A, the statistical significance was determined by one-sided Williams' 20 test (experiments 1 and 2) in which P≤0.025 was significant.

The subject of assay [1] is delirium. The following applies: five patients diagnosed as having delirium; cited from earlier work.
Assay [2] relates to delirium. The following applies: of 10 patients over 65 years of age who developed delirium with heart failure etc.; cited from earlier work.

As for `CC(=O)NCC[C@@H]1CCc2ccc3nc(C)oc3c21` [compound A, (S)—N-[2-(2-methyl-7,8-dihydro-6H-indeno[5,4-d][1,3]oxazol-8-yl)ethyl]acetamide], the “level of melatonin concentration (plasma)” value with plasma melatonin is reported as “significantly increased”. Moreover, the “start of plasma melatonin” value in the assay with plasma melatonin is given as “advanced”. The “% in the initial dark period (rotating basket exercise)” value with Clock mutant mouse (0.003 mg/kg orally once a day for 7 days) and in the assay with Clock mutant mouse (0.03 mg/kg orally once a day for 7 days) was “did not have a significant effect” in each case. Also, the exercise starting time result with Clock mutant mouse (0.03 mg/kg repetitive oral administration, FIG. 4) is on record as “significantly advanced”; in the assay on Clock mutant mouse (0.3 mg/kg repetitive oral administration, FIG. 2), “significantly advanced”; in the assay with Clock mutant mouse (1 mg/kg repetitive oral administration, FIG. 2) it was “significantly advanced”. The “% in the initial dark period (rotating basket exercise), recovery of decrease” value in the assay with Clock mutant mouse (0.3 mg/kg orally once a day for 7 days) and in the assay on Clock mutant mouse (1 mg/kg orally once a day for 7 days) was “improvement effect was significant” in each case. In addition, the “minimum effective dose (phase retardation)” value in the assay with Clock mutant mouse (oral, once a day for 7 days) turned out to be 0.03 mg/kg.
Turning to `CCC(=O)NCC[C@@H]1CCc2ccc3c(c21)CCO3` [ramelteon, (S)—N-[2-(1,6,7,8-tetrahydro-2H-indeno[5,4-b]furan-8-yl)ethyl]propionamide], the “recovery from delirium symptoms” value in the assay with delirium [1] is recorded as “recovered from delirium symptoms the next day”. Further, in the assay on delirium [2], the “patients in whom delirium was improved” value is 6 patients.

(Values after patent US11173147B2, “Prophylactic or therapeutic agent for delirium” (priority 2016, dated 2021).)
